Structures are written as SMILES.

Data set [1] deals with mitochondrial RNA-polymerase (POLRMT) (Mus musculus, UniProt Q8BKF1). The data set can be described thus: Homogeneous TR-FRET assay for mitochondrial transcription activity. In kind it is biochemical. The following applies: homogeneous TR-FRET assay according to Example 4; activity class. The method in brief: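 TR-FRET read-out (340 nm excitation, 665 nm emission) of a 407 bp transcript captured by Eu-streptavidin/biotin donor and ATTO647N acceptor DNA probes after EDTA stop. Transcription ran 2 h at RT with 500 μM […], mouse POLRMT/TFAM/TFB2M and LSP-plasmid template, after 10 min compound preincubation (10 μM or dilution series).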
On the technique in general: In TR-FRET formats the signal depends on donor and acceptor labels being close together.

Data set [2] relates to mitochondrial transcription (7S RNA) in HeLa cells. The data set can be described thus: Quantitative real time-PCR assay of inhibition of mitochondrial transcription (cellular qPCR assay IMT). The following applies: Homo sapiens, 4 h compound incubation, qRT-PCR according to Example 5, activity class. In kind it is cell-based. The procedure, abridged:
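HeLa cells were exposed 4 h to compound dilution series or DMSO. Mitochondrial 7S RNA, with POLRMT for nuclear transcription, was measured by TaqMan qRT-PCR, normalised to TBP. Biological triplicates were analysed by ΔΔCt and expressed as Rq % (2^-ΔΔCt).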
(In general: Real-time PCR tracks product formation cycle by cycle.)

Data set [3] has as its system human DLD-1 colon carcinoma xenograft. The data set can be described thus: Therapeutic effect on human DLD-1 colon carcinoma xenograft in nude mice. The conditions noted are these: 30 mg/kg p.o. QD × 28 days, positive control. In general terms: Xenograft models place foreign cells or tissue in a host animal.
Experimental: DLD-1 colon carcinoma cells (5×10^6 cells in 100 μL of PBS/Matrigel), isolated during exponential growth phase from in vitro cell culture, were transplanted s.c. into each female BALB/c nude mouse at day 0. Mice were kept under strictly controlled and standardized barrier conditions in IVC.
Sorafenib) (Nexavar®, which is an approved multi-kinase inhibitor/cytostatic from Bayer A G, was used as a positive control. Body weight and tumor volume (TV) were monitored two to three times per week.
Mice of groups 3, 4 and 5 were treated again at the end of the study period and blood samples were taken to generate plasma 1 h prior and 1 h post treatment. In addition, tumor and tissue samples were isolated, divided into two parts and snap frozen in liquid nitrogen. Mice of groups 1-5 were sacrificed at day 39. Gross autopsy was performed from all mice.

mitochondrial RNA-polymerase (POLRMT), sequence (Q8BKF1 42-1207): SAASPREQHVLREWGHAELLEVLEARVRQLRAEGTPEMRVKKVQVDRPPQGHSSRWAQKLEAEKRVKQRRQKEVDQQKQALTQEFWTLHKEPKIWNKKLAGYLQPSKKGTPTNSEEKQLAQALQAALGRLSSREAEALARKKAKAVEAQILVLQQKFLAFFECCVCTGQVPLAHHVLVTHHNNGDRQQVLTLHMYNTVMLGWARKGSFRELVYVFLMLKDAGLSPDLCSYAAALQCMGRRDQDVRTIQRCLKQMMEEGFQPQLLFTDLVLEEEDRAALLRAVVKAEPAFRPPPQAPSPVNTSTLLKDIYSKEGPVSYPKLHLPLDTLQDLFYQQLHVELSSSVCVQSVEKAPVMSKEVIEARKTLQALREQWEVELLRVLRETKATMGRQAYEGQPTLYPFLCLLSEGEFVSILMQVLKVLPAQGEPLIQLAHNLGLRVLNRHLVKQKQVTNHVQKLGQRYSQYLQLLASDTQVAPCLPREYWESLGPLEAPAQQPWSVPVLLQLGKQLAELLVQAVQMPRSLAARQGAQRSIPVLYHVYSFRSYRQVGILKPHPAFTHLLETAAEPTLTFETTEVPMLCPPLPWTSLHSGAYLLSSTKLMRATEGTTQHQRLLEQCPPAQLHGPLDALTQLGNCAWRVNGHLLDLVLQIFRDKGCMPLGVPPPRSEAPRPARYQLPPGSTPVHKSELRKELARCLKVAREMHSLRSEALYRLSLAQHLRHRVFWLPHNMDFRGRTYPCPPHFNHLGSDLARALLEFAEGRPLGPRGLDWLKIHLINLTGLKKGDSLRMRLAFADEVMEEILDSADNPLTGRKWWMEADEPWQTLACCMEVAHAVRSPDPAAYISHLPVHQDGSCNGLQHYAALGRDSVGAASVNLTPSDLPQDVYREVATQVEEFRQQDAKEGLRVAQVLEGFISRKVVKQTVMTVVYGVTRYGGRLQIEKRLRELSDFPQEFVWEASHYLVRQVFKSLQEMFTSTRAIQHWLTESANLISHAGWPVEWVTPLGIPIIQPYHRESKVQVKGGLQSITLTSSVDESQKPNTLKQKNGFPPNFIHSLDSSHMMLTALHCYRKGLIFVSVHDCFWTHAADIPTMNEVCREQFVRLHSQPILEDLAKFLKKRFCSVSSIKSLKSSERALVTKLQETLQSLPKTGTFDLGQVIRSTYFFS

For the molecule `CC(C)NC(=O)C(C)Oc1ccc2c(-c3ccccc3Cl)cc(=O)oc2c1` (centres unmarked) [Compound 70, 2-[4-(2-chlorophenyl)-2-oxo-chromen-7-yl]oxy-N-isopropyl-propanamide], the IC50 in data set [1] is 0.02 to 0.1 µM; in data set [2] it was less than 0.01 µM. Taken in the same sequence, the figures for `CCNC(=O)C(C)Oc1ccc2c(-c3ccccc3C)cc(=O)oc2c1` (centres unmarked) [Compound 85, N-ethyl-2-[4-(o-tolyl)-2-oxo-chromen-7-yl]oxy-propanamide] were 0.02 to 0.1 µM and 0.01 to 0.05 µM. Turning to `CNS(=O)(=O)C1CCCN(C(=O)C(C)Oc2ccc3c(-c4ccccc4C)cc(=O)oc3c2)C1` (centres unmarked) [Compound 18, N-methyl-1-[2-[4-(o-tolyl)-2-oxo-chromen-7-yl]oxypropanoyl]piperidine-3-sulfonamide], the results for the IC50 in data set [1] and in data set [2] were less than 0.02 µM and less than 0.01 µM, respectively. Taken in the same sequence, the figures for `CCC(=O)N[C@H]1CCCN(C(=O)[C@@H](C)Oc2ccc3c(-c4ccc(F)cc4Cl)cc(=O)oc3c2)C1` [Compound 169, N-[(3S)-1-[(2R)-2-[4-(2-chloro-4-fluoro-phenyl)-2-oxo-chromen-7-yl]oxypropanoyl]-3-piperidyl]propanamide] were less than 0.02 µM and less than 0.01 µM. The matching figures for `COC(=O)C[C@@H]1CCCN(C(=O)[C@@H](C)Oc2ccc3c(-c4ccc(F)cc4Cl)cc(=O)oc3c2)C1` [Compound 105, methyl 2-[(3S)-1-[(2R)-2-[4-(2-chloro-4-fluoro-phenyl)-2-oxo-chromen-7-yl]oxypropanoyl]-3-piperidyl]acetate]: 0.02 to 0.1 µM and 0.01 to 0.05 µM. The matching figures for `CC(Oc1ccc2c(-c3ccccc3Cl)cc(=O)oc2c1)C(=O)N1CCCCC1` (centres unmarked) [Compound 2, 4-(2-chlorophenyl)-7-[1-methyl-2-oxo-2-(1-piperidyl)ethoxy]chromen-2-one]: less than 0.02 µM and less than 0.01 µM. For the molecule `CCOC(=O)C(C)Oc1ccc2c(-c3ccccc3Br)cc(=O)oc2c1` (centres unmarked) [Compound 81, ethyl 2-[4-(2-bromophenyl)-2-oxo-chromen-7-yl]oxypropanoate], the IC50 was 0.02 to 0.1 µM in data set [1] and 0.01 to 0.05 µM in data set [2]. For `CCOC(=O)[C@H]1CCCN(C(=O)[C@@H](C)Oc2ccc3c(-c4ccc(F)cc4Cl)cc(=O)oc3c2)C1` [Compound 111, ethyl (3S)-1-[(2R)-2-[4-(2-chloro-4-fluoro-phenyl)-2-oxo-chromen-7-yl]oxypropanoyl] piperidine-3-carboxylate], the IC50 in data set [1] fell in the range of 0.02 to 0.1 µM; in data set [2], 0.05 to 0.5 µM.

Consider `CC(C)NC(=O)C(C)(C)Oc1ccc2c(-c3ccccc3Cl)cc(=O)oc2c1` [Compound 114, 2-[4-(2-chlorophenyl)-2-oxo-chromen-7-yl]oxy-N-isopropyl-2-methyl-propanamide], for which the IC50 in data set [1] lay within 0.1 to 1 µM; in data set [2], 0.01 to 0.05 µM. As to `C[C@@H](Oc1ccc2c(-c3ccc(F)cc3Cl)cc(=O)oc2c1)C(=O)Nc1ccc(C(=O)O)cn1` [Compound 155, 6-[[(2R)-2-[4-(2-chloro-4-fluoro-phenyl)-2-oxo-chromen-7-yl]oxypropanoyl]amino]pyridine-3-carboxylic acid], the IC50 in data set [1] is less than 0.02 µM; in data set [2], less than 0.01 µM.

Regarding `C[C@@H](Oc1ccc2c(-c3ccc(F)cc3Cl)cc(=O)oc2c1)C(=O)N1CCC[C@H](NC(=O)CCl)C1` [Compound 167, 2-chloro-N-[(3S)-1-[(2R)-2-[4-(2-chloro-4-fluoro-phenyl)-2-oxo-chromen-7-yl]oxypropanoyl]-3-piperidyl]acetamide], the IC50 in data set [1] was less than 0.02 µM; in data set [2] it was less than 0.01 µM. Taken in the same sequence, the figures for `CNC(=O)C[C@H]1CCCN(C(=O)[C@@H](C)Oc2ccc3c(-c4ccc(F)cc4Cl)cc(=O)oc3c2)C1` [Compound 128, 2-[(3R)-1-[(2R)-2-[4-(2-chloro-4-fluoro-phenyl)-2-oxo-chromen-7-yl]oxypropanoyl]-3-piperidyl]-N-methyl-acetamide] were less than 0.02 µM and less than 0.01 µM. Take `CC(Oc1ccc2c(-c3ccc(F)cc3Cl)cc(=O)oc2c1)C(=O)N1CCCC(S(N)(=O)=O)C1` (centres unmarked) [Compound 69, 1-[2-[4-(2-chloro-4-fluoro-phenyl)-2-oxo-chromen-7-yl]oxypropanoyl]piperidine-3-sulfonamide]: the figures for the IC50 in data set [1] and in data set [2] were 0.02 to 0.1 µM and less than 0.01 µM, respectively. Take `CCC(Oc1ccc2c(-c3ccccc3Cl)cc(=O)oc2c1)C(=O)N1CCC[C@H](C(=O)O)C1` (stereo partly drawn) [Compound 110, (3S)-1-[2-[4-(2-chlorophenyl)-2-oxo-chromen-7-yl]oxybutanoyl]piperidine-3-carboxylic acid]: the IC50 is less than 0.02 µM in data set [1] and less than 0.01 µM in data set [2]. Take `Cc1ccsc1-c1cc(=O)oc2cc(O[C@H](C)C(=O)N3CCC[C@H](C(=O)O)C3)ccc12` [Compound 174, (3S)-1-[(2R)-2-[4-(3-methyl-2-thienyl)-2-oxo-chromen-7-yl]oxypropanoyl]piperidine-3-carboxylic acid]: the figures for the IC50 in data set [1] and in data set [2] were 0.02 to 0.1 µM and less than 0.01 µM, respectively. Taken in the same sequence, the figures for `Cc1cscc1-c1cc(=O)oc2cc(O[C@H](C)C(=O)N3CCC[C@H](C(=O)O)C3)ccc12` [Compound 182, (3S)-1-[(2R)-2-[4-(4-methyl-3-thienyl)-2-oxo-chromen-7-yl]oxypropanoyl]piperidine-3-carboxylic acid] were less than 0.02 µM and less than 0.01 µM. Taken in the same sequence, the figures for `CC(Oc1ccc2c(-c3ccccc3Cl)cc(=O)oc2n1)C(=O)N1CCC[C@H](C(=O)O)C1` (mixture of isomers) [Compound 170, rac-(3S)-1-[2-[4-(2-chlorophenyl)-2-oxo-pyrano[2,3-b]pyridin-7-yl]oxypropanoyl]piperidine-3-carboxylic acid] were 0.02 to 0.1 µM and 0.05 to 0.5 µM. The matching figures for `Cc1ccccc1-c1cc(=O)oc2cc(OC(C)C(=O)N3CCCC(c4nn[nH]n4)C3)ccc12` (centres unmarked) [Compound 42, 7-((1-(3-(2H-tetrazol-5-yl)piperidin-1-yl)-1-oxopropan-2-yl)oxy)-4-(o-tolyl)-2H-chromen-2-one]: less than 0.02 µM and 0.01 to 0.05 µM. With `Cc1ccccc1-c1cc(=O)oc2cc(OC(C)C(=O)N3CCCCC3)ccc12` (centres unmarked) [Compound 1, 7-[1-methyl-2-oxo-2-(1-piperidyl)ethoxy]-4-(o-tolyl)chromen-2-one], the IC50 in data set [1] was less than 0.02 µM; in data set [2] it was less than 0.01 µM. Regarding `Cc1ccsc1-c1cc(=O)oc2cc(O[C@H](C)C(=O)N(C)C)ccc12` [Compound 179, (2R)-N,N-dimethyl-2-[4-(3-methyl-2-thienyl)-2-oxo-chromen-7-yl]oxy-propanamide], the IC50 is 0.1 to 1 µM in data set [1] and 0.01 to 0.05 µM in data set [2].

With `Cc1cscc1-c1cc(=O)oc2cc(O[C@H](C)C(=O)N3CCCCC3)ccc12` [Compound 183, 7-[(1R)-1-methyl-2-oxo-2-(1-piperidyl)ethoxy]-4-(4-methyl-3-thienyl)chromen-2-one], the values for the IC50 in data set [1] and in data set [2] were less than 0.02 µM and less than 0.01 µM, respectively.

Turning to `COC(=O)[C@H]1CN(C(=O)[C@@H](C)Oc2ccc3c(-c4ccc(F)cc4Cl)cc(=O)oc3c2)CCN1` [Compound 136, methyl (2R)-4-[(2R)-2-[4-(2-chloro-4-fluoro-phenyl)-2-oxo-chromen-7-yl]oxypropanoyl]piperazine-2-carboxylate], the results for the IC50 in data set [1] and in data set [2] were 0.02 to 0.1 µM and 0.01 to 0.05 µM, respectively. For the molecule `CNC(=O)c1cc(Oc2ccc(NC(=O)Nc3ccc(Cl)c(C(F)(F)F)c3)cc2)ccn1` [Sorafenib, reference compound], the body weight loss result in data set [3] was “severe body weight loss”. Take `Cc1ccsc1-c1cc(=O)oc2cc(O[C@H](C)C(=O)N3CCC[C@H](CC(=O)O)C3)ccc12` [Compound 181, 2-[(3R)-1-[(2R)-2-[4-(3-methyl-2-thienyl)-2-oxo-chromen-7-yl]oxypropanoyl]-3-piperidyl]acetic acid]: the IC50 lay in the range of 0.02 to 0.1 µM in data set [1] and 0.01 to 0.05 µM in data set [2].

The IC50 is the concentration at which inhibition is half-maximal. Read a high IC50 as weaker potency in that assay.

The values are drawn from patent publication US11111238B2, “Coumarin derivatives, processes for their preparation and uses thereof for the treatment of cancer” (Lead Discovery Center GmbH, priority 2017, dated 2021).
